Assay results: patent US8642801B2 (BHI Limited Partnership, priority 2003, dated 2014)

Target: T1, Aβ40 and Aβ42 peptides in plasma and brain of TgCRND8 mice (Homo sapiens, UniProt P05067)
T1 construct: ELISA using Human Aβ40 and Aβ42 Fluorometric ELISA kits from Biosource; from tissue; host or cells: plasma and brain homogenate of TgCRND8 transgenic mice (hAPP transgene)
Test: Short term treatment in adult transgenic CRND8 mice overexpressing βAPP: Aβ levels in plasma and brain by ELISA
Type: in vivo, Mouse
Settings: TgCRND8 mice
Text: Transgenic mice, […]8, expressing the human amyloid precursor protein (hAPP) develop a pathology resembling Alzheimer's disease. In particular, high levels of Aβ40 and Aβ 42 have been documented in the plasma and the brain of these animals at 8-9 weeks of age, followed by early accumulation of amyloid plaques similar to the senile plaques observed in AD patients. These animals also display progressive cognitive deficits that parallel the appearance of degenerative changes. See, […], et al., J. Biol. Chem. 276, 21562-70 (2001). The short term therapeutic effect of 19 compounds of the invention was studied. […] The following abbreviations are used to designate these animals from the 3rd and 4th generation backcross in the present protocol: TgCRND8-2.B6C3F1(N3); TgCRND8-2.B6C3F1(N4). Baseline animals (Group 1) consisted of naive TgCRND8-2. B6C3F1(N3) at 11±1 weeks of age. These mice were used to determine the Aβ levels in the plasma and brain of naive transgenic animals at the initiation of treatment. […] At the end of the treatment periods, plasma and perfused brains were collected for quantification of Aβ levels. […] Plasma samples were immediately frozen and stored at -80° C. pending analysis. The brains were removed, frozen, and stored at -80° C. awaiting analysis. […] Samples were spun at 15000 g for 20 minutes and the supernatants were transferred to fresh tubes. […] The tubes were vortexed for 30 seconds and frozen at -80° C. […] Samples were thawed at room temperature, sonicated at 80° C. for 15 minutes and frozen again. This cycle was repeated 3 times to ensure homogeneity and samples were returned to -80° C. pending analysis. Aβ levels were evaluated in plasma and brain samples by ELISA using Human Aβ40 and Aβ42 Fluorometric ELISA kits from Biosource (Cat. […] In short, samples were thawed at room temperature, sonicated for 5 minutes at 80° C. (sonication for brain homogenates; no sonication for plasma samples) and kept on ice. Aβ peptides were captured using 100 μl of the diluted samples to the plate and incubated without shaking at 4° C. overnight. The samples were aspirated and the wells were rinsed 4 times with wash buffer obtained from the Biosource ELISA kit. The anti-Aβ40 or anti-Aβ42 rabbit polyclonal antiserum (specific for the Aβ40 or Aβ42 peptide) was added (100 μl) and the plate was incubated at room temperature for 2 hours with shaking. The wells were aspirated and washed 4 times before adding 100 μl of the alkaline phosphatase labeled anti-rabbit antibody and incubating at room temperature for 2 hours with shaking. The plates were then rinsed 5 times and the fluorescent substrate (100 μl) was added to the plate. The plate was incubated for 35 minutes at room temperature and the plate was read using a titer plate reader at an excitation wavelength of 460 nm and emission at 560 nm Compounds were scored based on their ability to modulate levels of Aβ peptides in the plasma and the cerebral soluble/insoluble levels in the brain. Levels of Aβ observed in the plasma and brain of treated animals were normalized using values from vehicle-treated (water) or methylcellulose-treated control groups and ranked according to the strength of the pharmacological effect. Increases in the levels of Aβ peptides are indicated using “+” symbols, while decreases in the levels of Aβ peptides are indicated using “-” symbols. The strongest effects are recorded as “+++” or “- - -” while the weakest are shown as “+” or “-”.

[1] = Brain Homogenate Vehicle Group, Day 14, 250 mg/kg daily
[2] = Brain Homogenate Vehicle Group, Day 28, 250 mg/kg daily
[3] = Plasma Vehicle Group, Day 14, 250 mg/kg daily subcutaneous, normalized to water vehicle control
[4] = Brain Homogenate Methylcellulose Group, Day 14, 250 mg/kg daily oral
[5] = Brain Homogenate Methylcellulose Group, Day 28, 250 mg/kg daily oral

## CCC(CC)NCCCS(=O)(=O)O [DD, 3-(3-pentyl)amino-1-propanesulfonic acid]
[1]
  Brain homogenate Aβ40 Change Insoluble: − (Decreases in the levels of Aβ of 5 to 19% are scored as “−”)
[2]
  Brain homogenate Aβ40 Change Insoluble: − (Decreases in the levels of Aβ of 5 to 19% are scored as “−”)

## COCC(NCCCS(=O)(=O)O)[C@@H](O)c1ccccc1 (stereo in doubt) [EG, 3-[(1R,2S)-2-hydroxy-1-(methoxymethyl)-2-phenylethyl]amino-1-propanesulfonic acid]
[1]
  Brain homogenate Aβ40 Change Insoluble: −− (decreases of 20 to 38% are scored as “− −”)
  Brain homogenate Aβ40 Change Soluble: − (Decreases in the levels of Aβ of 5 to 19% are scored as “−”)
  Brain homogenate Aβ42 Change Insoluble: −− (decreases of 20 to 38% are scored as “− −”)
  Brain homogenate Aβ42 Change Soluble: −− (decreases of 20 to 38% are scored as “− −”)
[2]
  Brain homogenate Aβ40 Change Insoluble: −− (decreases of 20 to 38% are scored as “− −”)
  Brain homogenate Aβ42 Change Insoluble: −− (decreases of 20 to 38% are scored as “− −”)

## CC(C)(NCCCS(=O)(=O)O)c1ccccc1 [DM, 3-cumylamino-1-propanesulfonic acid]
[1]
  Brain homogenate Aβ40 Change Insoluble: + (increases in the levels of Aβ (relative to untreated control) of 20 to 39% are scored as “+”)
  Brain homogenate Aβ42 Change Insoluble: − (Decreases in the levels of Aβ of 5 to 19% are scored as “−”)
  Brain homogenate Aβ42 Change Soluble: − (Decreases in the levels of Aβ of 5 to 19% are scored as “−”)
[2]
  Brain homogenate Aβ40 Change Insoluble: −− (decreases of 20 to 38% are scored as “− −”)
  Brain homogenate Aβ40 Change Soluble: − (Decreases in the levels of Aβ of 5 to 19% are scored as “−”)
  Brain homogenate Aβ42 Change Insoluble: −− (decreases of 20 to 38% are scored as “− −”)
  Brain homogenate Aβ42 Change Soluble: −− (decreases of 20 to 38% are scored as “− −”)

## O=S(=O)(O)CC(O)CNC1CCCCC1 (stereo not shown) [DC]
[1]
  Brain homogenate Aβ40 Change Insoluble: −− (decreases of 20 to 38% are scored as “− −”)
  Brain homogenate Aβ42 Change Insoluble: −− (decreases of 20 to 38% are scored as “− −”)
  Brain homogenate Aβ42 Change Soluble: + (increases in the levels of Aβ (relative to untreated control) of 20 to 39% are scored as “+”)
[2]
  Brain homogenate Aβ40 Change Insoluble: + (increases in the levels of Aβ (relative to untreated control) of 20 to 39% are scored as “+”)
  Brain homogenate Aβ40 Change Soluble: − (Decreases in the levels of Aβ of 5 to 19% are scored as “−”)
  Brain homogenate Aβ42 Change Insoluble: +++ (increases of 70% or higher are scored as “+ + +”)
  Brain homogenate Aβ42 Change Soluble: ++ (increases of 40 to 69% are scored as “++”)
[3]
  Plasma Aβ40 Change: ++ (increases of 40 to 69% are scored as “++”)
  Plasma Aβ42 Change: ++ (increases of 40 to 69% are scored as “++”)
Plasma Vehicle Group, Day 28, 250 mg/kg daily subcutaneous, normalized to water vehicle control
  Plasma Aβ40 Change: ++ (increases of 40 to 69% are scored as “++”)

## COc1ccc([C@H](C)NCCCS(=O)(=O)O)cc1 [DZ, 3-[(S)-1-(4-methoxyphenyl)ethyl]amino-1-propanesulfonic acid]
[1]
  Brain homogenate Aβ42 Change Insoluble: −− (decreases of 20 to 38% are scored as “− −”)
[2]
  Brain homogenate Aβ40 Change Insoluble: −− (decreases of 20 to 38% are scored as “− −”)
  Brain homogenate Aβ40 Change Soluble: − (Decreases in the levels of Aβ of 5 to 19% are scored as “−”)
  Brain homogenate Aβ42 Change Insoluble: −− (decreases of 20 to 38% are scored as “− −”)
  Brain homogenate Aβ42 Change Soluble: −− (decreases of 20 to 38% are scored as “− −”)

## CC12CC3CC(C)(C1)CC(NCCCS(=O)(=O)O)(C3)C2 [CY]
[4]
  Brain homogenate Aβ40 Change Soluble: − (Decreases in the levels of Aβ of 5 to 19% are scored as “−”)
  Brain homogenate Aβ42 Change Insoluble: ++ (increases of 40 to 69% are scored as “++”)
  Brain homogenate Aβ42 Change Soluble: +++ (increases of 70% or higher are scored as “+ + +”)
[5]
  Brain homogenate Aβ40 Change Insoluble: +++ (increases of 70% or higher are scored as “+ + +”)
  Brain homogenate Aβ40 Change Soluble: ++ (increases of 40 to 69% are scored as “++”)
  Brain homogenate Aβ42 Change Insoluble: + (increases in the levels of Aβ (relative to untreated control) of 20 to 39% are scored as “+”)
  Brain homogenate Aβ42 Change Soluble: +++ (increases of 70% or higher are scored as “+ + +”)
Plasma Methylcellulose Group, Day 28, 250 mg/kg daily oral in 1% methylcellulose, normalized to methylcellulose control
  Plasma Aβ42 Change: + (increases in the levels of Aβ (relative to untreated control) of 20 to 39% are scored as “+”)

## C#CC1(NCCCS(=O)(=O)O)CCCCC1 [DX, 3-(1-ethynylcyclohexyl)amino-1-propanesulfonic acid]
[1]
  Brain homogenate Aβ40 Change Insoluble: −− (decreases of 20 to 38% are scored as “− −”)
  Brain homogenate Aβ42 Change Insoluble: − (Decreases in the levels of Aβ of 5 to 19% are scored as “−”)
[2]
  Brain homogenate Aβ40 Change Insoluble: −− (decreases of 20 to 38% are scored as “− −”)
  Brain homogenate Aβ42 Change Insoluble: −− (decreases of 20 to 38% are scored as “− −”)
  Brain homogenate Aβ42 Change Soluble: − (Decreases in the levels of Aβ of 5 to 19% are scored as “−”)

## O=S(=O)(O)CCCNCC(O)c1ccccc1 (stereo not shown) [DY]
[1]
  Brain homogenate Aβ40 Change Insoluble: −− (decreases of 20 to 38% are scored as “− −”)
  Brain homogenate Aβ42 Change Insoluble: −− (decreases of 20 to 38% are scored as “− −”)
[2]
  Brain homogenate Aβ40 Change Insoluble: −−− (decreases of 39% or more are scored as “− − −”)
  Brain homogenate Aβ42 Change Insoluble: −− (decreases of 20 to 38% are scored as “− −”)
  Brain homogenate Aβ42 Change Soluble: − (Decreases in the levels of Aβ of 5 to 19% are scored as “−”)

## CC(C)(CO)NCCCS(=O)(=O)O [DH, 3-(1,1-dimethyl-2-hydroxyethyl)amino-1-propanesulfonic acid]
[1]
  Brain homogenate Aβ40 Change Insoluble: −− (decreases of 20 to 38% are scored as “− −”)
  Brain homogenate Aβ42 Change Insoluble: −−− (decreases of 39% or more are scored as “− − −”)
  Brain homogenate Aβ42 Change Soluble: −−− (decreases of 39% or more are scored as “− − −”)
[2]
  Brain homogenate Aβ40 Change Insoluble: − (Decreases in the levels of Aβ of 5 to 19% are scored as “−”)
  Brain homogenate Aβ42 Change Insoluble: − (Decreases in the levels of Aβ of 5 to 19% are scored as “−”)

## O=S(=O)(O)CCCNC1CC2CCC1C2 (stereo not shown) [BY, 3-(2-norbornyl)amino-1-propanesulfonic acid]
[1]
  Brain homogenate Aβ40 Change Insoluble: +++ (increases of 70% or higher are scored as “+ + +”)
  Brain homogenate Aβ40 Change Soluble: +++ (increases of 70% or higher are scored as “+ + +”)
  Brain homogenate Aβ42 Change Soluble: +++ (increases of 70% or higher are scored as “+ + +”)
[2]
  Brain homogenate Aβ40 Change Insoluble: +++ (increases of 70% or higher are scored as “+ + +”)
  Brain homogenate Aβ40 Change Soluble: + (increases in the levels of Aβ (relative to untreated control) of 20 to 39% are scored as “+”)
  Brain homogenate Aβ42 Change Insoluble: +++ (increases of 70% or higher are scored as “+ + +”)
[3]
  Plasma Aβ40 Change: + (increases in the levels of Aβ (relative to untreated control) of 20 to 39% are scored as “+”)
  Plasma Aβ42 Change: + (increases in the levels of Aβ (relative to untreated control) of 20 to 39% are scored as “+”)
